This is an account of results in BindingDB's records for doi:10.1021/cc020096o (University of Anterwerp, 2003).

Assay [1] addresses Dipeptidyl peptidase 4 (Homo sapiens, UniProt P27487). The assay can be described thus: DPP IV Assay. Conditions: pH 8.3. As to the method:
Inhibitory concentration of the compound against Dipeptidyl peptidase IV (DPP IV) in Homo sapiens (human)is measured

The target of assay [2] is Dipeptidyl peptidase 2 (Homo sapiens, UniProt Q9UHL4). The assay can be described thus: DPP IV Assay. Conditions: pH 5.5.

Dipeptidyl peptidase 4, sequence (P27487 whole entry): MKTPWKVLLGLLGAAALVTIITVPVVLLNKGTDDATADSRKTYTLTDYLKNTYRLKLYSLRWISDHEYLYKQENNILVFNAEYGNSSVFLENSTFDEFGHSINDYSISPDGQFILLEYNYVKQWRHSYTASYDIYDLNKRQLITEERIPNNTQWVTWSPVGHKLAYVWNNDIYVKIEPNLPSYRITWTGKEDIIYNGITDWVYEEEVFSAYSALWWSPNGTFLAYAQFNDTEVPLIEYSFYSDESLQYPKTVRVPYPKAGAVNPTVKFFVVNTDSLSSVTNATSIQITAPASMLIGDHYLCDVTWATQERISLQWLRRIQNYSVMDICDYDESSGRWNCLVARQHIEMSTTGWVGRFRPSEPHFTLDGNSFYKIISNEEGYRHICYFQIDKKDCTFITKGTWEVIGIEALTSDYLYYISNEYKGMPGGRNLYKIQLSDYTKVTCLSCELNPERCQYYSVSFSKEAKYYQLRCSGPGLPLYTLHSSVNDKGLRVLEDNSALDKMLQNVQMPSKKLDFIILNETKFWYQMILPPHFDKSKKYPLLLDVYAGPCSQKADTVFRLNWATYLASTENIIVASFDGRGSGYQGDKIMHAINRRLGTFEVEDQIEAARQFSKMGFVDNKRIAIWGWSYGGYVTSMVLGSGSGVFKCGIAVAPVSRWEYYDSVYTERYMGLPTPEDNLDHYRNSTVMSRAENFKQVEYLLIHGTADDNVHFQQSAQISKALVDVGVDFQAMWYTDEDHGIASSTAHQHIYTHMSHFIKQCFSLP

A word on the IC50: it is the concentration at which inhibition is half-maximal. As for `O=C(CNC1CCCC1)NC(c1ccccc1)P(=O)(Oc1ccccc1)Oc1ccccc1` (centres undefined), the IC50 in assay [1] is more than 125 µM; in assay [2], 3.8 µM.

As for `C[C@H](N)C(=O)N1CCCC1P(=O)(Oc1ccccc1)Oc1ccccc1` (some centres undefined), the IC50 in assay [1] and in assay [2] was more than 1000 µM each time.

Turning to `NC(=O)C[C@H](N)C(=O)N1CCCC1P(=O)(Oc1ccccc1)Oc1ccccc1` (some centres undefined), the IC50 in assay [2] is more than 125 µM.

For the compound `N[C@@H](CC(=O)O)C(=O)N1CCCC1P(=O)(Oc1ccccc1)Oc1ccccc1` (some centres undefined), in assay [1], the IC50 is more than 1000 µM.

`N[C@@H](Cc1cnc[nH]1)C(=O)N1CCCC1P(=O)(Oc1ccccc1)Oc1ccccc1` (some centres undefined) displayed an IC50 in assay [1] of 326 µM.

As to `NCCCC[C@H](N)C(=O)N1CCCC1P(=O)(Oc1ccccc1)Oc1ccccc1` (some centres undefined), the IC50 in assay [1] was 117 µM; in assay [2] it was more than 1000 µM.

Take `N[C@@H](Cc1ccccc1)C(=O)N1CCCC1P(=O)(Oc1ccccc1)Oc1ccccc1` (some centres undefined): the IC50 in assay [1] was 142 µM; in assay [2] it was more than 1000 µM.

Turning to `CC(NC(=O)CN)P(=O)(Oc1ccccc1)Oc1ccccc1` (centres undefined) [2-amino-N-(1-diphenoxyphosphorylethyl)acetamide], the IC50 was more than 500 µM in assay [1] and more than 1000 µM in assay [2].

As to `NCC[C@H](N)C(=O)NC(C1CCCCC1)P(=O)(Oc1ccccc1)Oc1ccccc1` (stereo partly drawn) [(2S)-2,4-diamino-N-[cyclohexyl(diphenoxyphosphoryl)methyl]butanamide], the IC50 in assay [1] stood at 1000 µM; in assay [2] it was 21 µM.

Consider `CCCC(NC(=O)[C@@H](N)CCCCN)P(=O)(Oc1ccccc1)Oc1ccccc1` (stereo partly drawn) [(2S)-2,6-diamino-N-(1-diphenoxyphosphorylbutyl)hexanamide], for which the IC50 in assay [1] and in assay [2] was more than 1000 µM throughout.

As to `CC(NC(=O)[C@@H](N)CCCCN)P(=O)(Oc1ccccc1)Oc1ccccc1` (stereo partly drawn) [(2S)-2,6-diamino-N-(1-diphenoxyphosphorylethyl)hexanamide], the IC50 in assay [1] was more than 500 µM; in assay [2], more than 1000 µM.

Take `N[C@@H](CO)C(=O)N1CCCC1P(=O)(Oc1ccccc1)Oc1ccccc1` (stereo partly drawn) [(2S)-2-amino-1-(2-diphenoxyphosphorylpyrrolidin-1-yl)-3-hydroxy-propan-1-one]: the IC50 is 503 µM in assay [1] and more than 1000 µM in assay [2].

On to `CCCC(NC(=O)[C@@H](N)CC1CCCCC1)P(=O)(Oc1ccccc1)Oc1ccccc1` (stereo partly drawn) [(2S)-2-amino-3-cyclohexyl-N-(1-diphenoxyphosphorylbutyl)propanamide], for which the IC50 was more than 250 µM in assay [1] and 500 µM in assay [2].

On to `CC(NC(=O)[C@@H](N)CC1CCCCC1)P(=O)(Oc1ccccc1)Oc1ccccc1` (stereo partly drawn) [(2S)-2-amino-3-cyclohexyl-N-(1-diphenoxyphosphorylethyl)propanamide], for which the values for the IC50 in assay [1] and in assay [2] were more than 500 µM and 47 µM, respectively.

For `CCC(NC(=O)[C@@H](N)CC1CCCCC1)P(=O)(Oc1ccccc1)Oc1ccccc1` (stereo partly drawn) [(2S)-2-amino-3-cyclohexyl-N-(1-diphenoxyphosphorylpropyl)propanamide], the results for the IC50 in assay [1] and in assay [2] were more than 1000 µM and 62 µM, respectively.

Consider `N[C@@H](CC1CCCCC1)C(=O)NC(C1CCCCC1)P(=O)(Oc1ccccc1)Oc1ccccc1` (stereo partly drawn) [(2S)-2-amino-3-cyclohexyl-N-[cyclohexyl(diphenoxyphosphoryl)methyl]propanamide], for which the IC50 in assay [1] is more than 250 µM; in assay [2], 30 µM.

As to `CCC(CC)C(NC(=O)[C@@H](N)C(C)CC)P(=O)(Oc1ccccc1)Oc1ccccc1` (stereo partly drawn) [(2S)-2-amino-N-(1-diphenoxyphosphoryl-2-ethyl-butyl)-3-methyl-pentanamide], the IC50 in assay [1] and in assay [2] was more than 1000 µM throughout.

Take `CCC(C)C(NC(=O)[C@@H](N)C(C)CC)P(=O)(Oc1ccccc1)Oc1ccccc1` (stereo partly drawn) [(2S)-2-amino-N-(1-diphenoxyphosphoryl-2-methyl-butyl)-3-methyl-pentanamide]: the IC50 in assay [1] was more than 1000 µM; in assay [2], 414 µM.

With `CCC(C)[C@H](N)C(=O)NC(C(C)C)P(=O)(Oc1ccccc1)Oc1ccccc1` (stereo partly drawn) [(2S)-2-amino-N-(1-diphenoxyphosphoryl-2-methyl-propyl)-3-methyl-pentanamide], the figures for the IC50 in assay [1] and in assay [2] were more than 1000 µM and 1000 µM, respectively.

`CCC(C)[C@H](N)C(=O)NC(CC(C)C)P(=O)(Oc1ccccc1)Oc1ccccc1` (stereo partly drawn) [(2S)-2-amino-N-(1-diphenoxyphosphoryl-3-methyl-butyl)-3-methyl-pentanamide]: the IC50 was more than 1000 µM in assay [1] and 286 µM in assay [2].

As for `CCCC(NC(=O)[C@@H](N)C(C)CC)P(=O)(Oc1ccccc1)Oc1ccccc1` (stereo partly drawn) [(2S)-2-amino-N-(1-diphenoxyphosphorylbutyl)-3-methyl-pentanamide], the IC50 was more than 1000 µM in assay [1] and 1000 µM in assay [2].

Regarding `CC(NC(=O)[C@@H](N)Cc1cnc[nH]1)P(=O)(Oc1ccccc1)Oc1ccccc1` (stereo partly drawn) [(2S)-2-amino-N-(1-diphenoxyphosphorylethyl)-3-(1H-imidazol-4-yl)propanamide], the IC50 in assay [1] and in assay [2] was more than 500 µM each time.

Take `CC(NC(=O)[C@@H](N)Cc1ccc(O)cc1)P(=O)(Oc1ccccc1)Oc1ccccc1` (stereo partly drawn) [(2S)-2-amino-N-(1-diphenoxyphosphorylethyl)-3-(4-hydroxyphenyl)propanamide]: the IC50 in assay [1] and in assay [2] was more than 500 µM in each case.

`CC(NC(=O)[C@@H](N)CO)P(=O)(Oc1ccccc1)Oc1ccccc1` (stereo partly drawn) [(2S)-2-amino-N-(1-diphenoxyphosphorylethyl)-3-hydroxy-propanamide]: the IC50 in assay [1] was more than 500 µM; in assay [2], more than 1000 µM.

On to `CC(C)[C@H](N)C(=O)NC(C)P(=O)(Oc1ccccc1)Oc1ccccc1` (stereo partly drawn) [(2S)-2-amino-N-(1-diphenoxyphosphorylethyl)-3-methyl-butanamide], for which the IC50 was more than 500 µM in assay [1] and less than 1000 µM in assay [2].

For `CCC(C)[C@H](N)C(=O)NC(C)P(=O)(Oc1ccccc1)Oc1ccccc1` (stereo partly drawn) [(2S)-2-amino-N-(1-diphenoxyphosphorylethyl)-3-methyl-pentanamide], the figures for the IC50 in assay [1] and in assay [2] were more than 500 µM and 116 µM, respectively.

Consider `CC(NC(=O)[C@@H](N)Cc1ccccc1)P(=O)(Oc1ccccc1)Oc1ccccc1` (stereo partly drawn) [(2S)-2-amino-N-(1-diphenoxyphosphorylethyl)-3-phenyl-propanamide], for which the IC50 was more than 500 µM in assay [1] and less than 1000 µM in assay [2].

On to `CC(C)C[C@H](N)C(=O)NC(C)P(=O)(Oc1ccccc1)Oc1ccccc1` (stereo partly drawn) [(2S)-2-amino-N-(1-diphenoxyphosphorylethyl)-4-methyl-pentanamide], for which the IC50 in assay [1] was more than 1000 µM; in assay [2], more than 500 µM.

In turn, `CC(NC(=O)[C@@H](N)CC(N)=O)P(=O)(Oc1ccccc1)Oc1ccccc1` (stereo partly drawn) [(2S)-2-amino-N-(1-diphenoxyphosphorylethyl)butanediamide] had an IC50 in assay [2] of 286 µM.

`CC(NC(=O)[C@H](C)N)P(=O)(Oc1ccccc1)Oc1ccccc1` (stereo partly drawn) [(2S)-2-amino-N-(1-diphenoxyphosphorylethyl)propanamide] yielded an IC50 in assay [2] of less than 1000 µM.

For the compound `CCC(C)[C@H](N)C(=O)NC(CC)P(=O)(Oc1ccccc1)Oc1ccccc1` (stereo partly drawn) [(2S)-2-amino-N-(1-diphenoxyphosphorylpropyl)-3-methyl-pentanamide], the IC50 in assay [1] was more than 1000 µM; in assay [2], 1000 µM.

In the case of `CCC(C)[C@H](N)C(=O)NC(c1cccc(C#N)c1)P(=O)(Oc1ccccc1)Oc1ccccc1` (stereo partly drawn) [(2S)-2-amino-N-[(3-cyanophenyl)-diphenoxyphosphoryl-methyl]-3-methyl-pentanamide], the IC50 in assay [1] is more than 125 µM; in assay [2] it was 509 µM.

Regarding `CCC(C)[C@H](N)C(=O)NC(c1ccc(C#N)cc1)P(=O)(Oc1ccccc1)Oc1ccccc1` (stereo partly drawn) [(2S)-2-amino-N-[(4-cyanophenyl)-diphenoxyphosphoryl-methyl]-3-methyl-pentanamide], the IC50 was more than 250 µM in assay [1] and 150 µM in assay [2].

For `N[C@@H](Cc1cnc[nH]1)C(=O)NC(C1CCCCC1)P(=O)(Oc1ccccc1)Oc1ccccc1` (stereo partly drawn) [(2S)-2-amino-N-[cyclohexyl(diphenoxyphosphoryl)methyl]-3-(1H-imidazol-4-yl)propanamide], the figures for the IC50 in assay [1] and in assay [2] were more than 1000 µM and 241 µM, respectively.

Turning to `CCC(C)[C@H](N)C(=O)NC(C1CCCCC1)P(=O)(Oc1ccccc1)Oc1ccccc1` (stereo partly drawn) [(2S)-2-amino-N-[cyclohexyl(diphenoxyphosphoryl)methyl]-3-methyl-pentanamide], the IC50 in assay [1] is more than 1000 µM; in assay [2], 148 µM.

With `CCC(C)[C@H](N)C(=O)NC(c1ccccc1)P(=O)(Oc1ccccc1)Oc1ccccc1` (stereo partly drawn) [(2S)-2-amino-N-[diphenoxyphosphoryl(phenyl)methyl]-3-methyl-pentanamide], the IC50 was more than 250 µM in assay [1] and 18 µM in assay [2].

With `O=C(CNC1CCCC1)NC(C1CCCCC1)P(=O)(Oc1ccccc1)Oc1ccccc1` (centres undefined) [N-[cyclohexyl(diphenoxyphosphoryl)methyl]-2-(cyclopentylamino)acetamide], the IC50 in assay [1] is more than 125 µM; in assay [2], 8 µM.
